Results on 2 molecules are retold here after PMC3280530, “Marine Compounds Selectively Induce Apoptosis in Female Reproductive Cancer Cells but Not in Primary-Derived Human Reproductive Granulosa Cells” (Marine Drugs, 2012).

Like-named read-outs stand apart in the source and are kept apart here.

The test system of test [1] is JAr cells. Put plainly: MTT cell viability assay. Format: cell-based. Particulars: Homo sapiens. As for the experimental part:
(§1) For cell assays, the D. orbita fractions were prepared fresh on the day of the experiment by dissolving in dimethyl sulfoxide (DMSO; 100%) at 100× the final concentration. These were diluted to a range of working concentrations (0.001–0.5 mg/mL) in complete cell assay medium to give a final working concentration per well of 1% DMSO. All samples were filtered through a […] (Sartorius) filter before use.
(§2) The primary-derived granulosa cells, along with the KGN, JAr and OVCAR-3 cell lines (10,000 cells per well) were plated into sterile white (opaque) 96-well plates (Interpath) and clear sterile 96-well plates (Interpath) in 0.1 mL per well of complete cell culture medium for 24 h (granulosa, KGN and OVCAR-3 cells) and 2 h (for JAr cells) to allow cell adherence. Standard curves of 0–40,000 cells per well (primary granulosa cells) and 0–80,000 cells per well (for KGN, JAr and OVCAR-3 cells) in six replicate wells were plated into clear 96-well plates, alongside the test plates. After the initial cell adherence period, spent media (media deficient of nutrients and serum) were discarded and primary-derived granulosa, KGN, JAr and OVCAR-3 cells were treated with the two D. orbita fractions at concentrations of 0.005, 0.01, 0.05, 0.1, and 0.5 mg/mL in a final volume of 0.1 mL per well in triplicate wells, for 4 and 24 h at 37 °C + 5% CO2. 1 h prior to the end of eachincubation period two positive controls were added; one for apoptosis (1 μg/mL DNase I), and the second for necrosis (2 μL per well of a cell lysis buffer; Promega). This experiment was repeated on three separate occasions (n = 3).
(§3) After 4, 24, 48 and 72 h exposure to D. orbita fractions in clear 96-well plates, media and all dead unattached cells were removed. The remaining adherent cells were rinsed with sterile 1× PBS and the MTT assay was performed. The MTT assay measures the reduction of a yellow substrate to formazan, a purple precipitate, by the mitochondrial succinate dehydrogenase enzymes. A solution of 0.5 mg/mL MTT (was added to wells in a final volume of 0.1 mL. The plates were then incubated for 1 h (JAr cells) and 18 h (KGN, OVCAR-3 and GC cells) at 37 °C and 5% CO2. At the end of the incubation period, 80 μL/well 20% SDS in 0.02 M HCl was added and plate was incubated for a further 1 h at room temperature in the dark. The absorbance was the measured at 570 nm, with reference absorbance 630 nm, using an automatic spectrophotometer using KC Junior software. This assay was repeated on three separate occasions (n = 3).
For orientation: Tetrazolium assays rely on reduction of a dye to a coloured formazan, in cell work by metabolically active cells.

In test [2] the test system is primary-derived human reproductive granulosa cells (HGC). Kind of test: MTT cell viability assay. Particulars: for IC50: Homo sapiens, HGC, MTT. Format: cell-based. The method, then:
as §1, §2, §3

For test [3], the system named is KGN cells. Put plainly: MTT cell viability assay. Type of test: cell-based, human. As for the experimental part:
as §1, §2, §3

Test [4] concerns OVCAR-3 cells. Put plainly: MTT cell viability assay. Format: cell-based, human. The settings on record: OVCAR-3, MTT. The method, then:
as §1, §2, §3

In test [5] the test system is primary-derived human reproductive granulosa cells (HGC). Kind of test: TUNEL staining (apoptosis). Format: cell-based. The settings on record: for TUNEL positive cells: 4 h, 0.05 mg/mL; for TUNEL labelled cells: 24 h, 0.005 mg/mL. The method, then: Primary-derived human granulosa cells and KGN cells were plated into Nunc Lab-Tek II CC2 Chamber Slides at 30,000 cells per chamber well in a final volume of 0.3 mL of DMEM/F12 + 10% FBS complete cell culture medium and incubated for 24 h at 37 °C + 5% CO2 to allow cell attachment to slides. Spent media (media deficient of nutrients and serum) and non-viable and non-adherent cellswere discarded and replaced with the D. orbita fractions at concentrations of 0.005, 0.01 and 0.05 mg/mL in a final volume of 0.3 mL of DMEM/F12 + 10% medium. A medium-only and a 1% DMSO control were also added before incubation for 4 and 24 h at 37 °C + 5% CO2. This experiment was repeated on three separate occasions (n = 3). The supernatant was removed and the cells rinsed with PBS before fixation with 4% paraformaldehyde for 25 min at room temperature. The DeadEnd™ Fluorometric TUNEL System (Promega) was performed as recommended by the manufacturer. Briefly the cells were treated with 0.2% Triton X-100 for 5 min, to permeablize the cells. The cells were rinsed in PBS before the addition of 50 μL of rTdT incubation buffer (Promega) at 37 °C for 1 h, protected from light. Cells were rinsed in 2× sodium chloride and sodium citratesolution (Promega) for 15 min at room temperature (25 °C) then rinsed again with PBS. The cells were counter-stained with 1 μg/mL propidium iodide (PI). A separate positive control slide of 1 μg/mL DNase I, and a negative control slide of buffer without rTdT, was prepared in conjunction with treatment slides. Cells were examined immediately and photographed at 200 and 400× magnification using a Fluorescence Olympus BX50 Microscope with filter Chroma 31001 at excitation 450–495 nm, Dichroic 505 and emission 515–555 nm for the green fluorescein of TUNEL and Chroma 31002 at excitation 515–550 nm, Dichroic 565 and emission 575–615 nm for the red fluorescence of the PI staining. Photomicrographs of four fields of view were taken for each treatment in each repeat of theassay and the number of TUNEL positive nuclei, stained bright green, were calculated as a fraction of the total number of PI stained nuclei, stained bright red, in each image. The average of the four fields was then calculated.

For test [6], the system named is untransformed human mononuclear cells (MNC). More on the design: method as in PMID 19491143, PMID 17088067. Particulars: in vitro, cited from earlier work.
Test [7] has as its system lymphoma cell. The arrangement: method as in PMID 17088067. Particulars: 1 h exposure; read-out: concentration giving (predicted) 50% reduction in lymphoma cell viability; cited from earlier work.
The subject of test [8] is U937 lymphoma cell line. Particulars: U937, 4 h exposure, tyrindoleninone in an impure extract; read-out: concentration giving 50% reduction in cell viability; cited from earlier work.
Test [9] relates to CaCo2 colon carcinoma cells. More on the design: method as in PMID 19491143. Particulars: CaCo2, 4 h exposure, tyrindoleninone in an impure extract; read-out: concentration giving 50% reduction in cell viability; cited from earlier work.
Where [10] appears, read: Homo sapiens, OVCAR-3, 4 h, 4 h.
Where [11] appears, read: Homo sapiens, OVCAR-3, 24 h, 24 h.
The mark [12] stands for this setting: Homo sapiens, OVCAR-3, 48 h, 48 h.
The mark [13] stands for this setting: Homo sapiens, OVCAR-3, 72 h, 72 h.

`O=C1Nc2cc(Br)ccc2C1=O` [6-Bromoisatin, 6-bromoisatin]: the IC50 in test [1] (4 h) was 223 µM; in test [1] (24 h), 446 µM; in [1] (48 h), 446 µM; in [2] (4 h) it was greater than 4460 µM; in [2] (24 h), greater than 4460 µM; in [2] (48 h) it was 1780 µM. The IC50 in [2] (72 h) is 2230 µM; in [3] (72 h), less than 22 µM; in [3] (Homo sapiens, 4 h), 178 µM; in test [3] (Homo sapiens, 24 h) it was 446 µM; in [3] (Homo sapiens, 48 h) it was 22 µM; in test [3] (Homo sapiens, 72 h), 22 µM. For the same molecule, the IC50 in [4] (setting [10]) is 402 µM; in test [4] (setting [11]), 446 µM; in test [4] (setting [12]), 89 µM; in [4] (setting [13]), 22 µM; in [4] (72 h), less than 22 µM. This molecule also showed a TUNEL positive cells in test [5] of 27%. In test [5], this molecule had a TUNEL labelled cells of 10%.

For `CSC1=Nc2cc(Br)ccc2C1=O` [Tyrindoleninone, tyrindoleninone], the IC50 in [6] (1 h exposure, read-out: IC50) was 195 µM; in test [6] it was 50 µg/mL; in test [1] (4 h), 39 µM; in test [1] (24 h) it was 117 µM; in test [1] (48 h), 78 µM; in test [2] (4 h), 3520 µM. Moreover, the IC50 in test [2] (24 h) was 1560 µM; in test [2] (48 h), 1560 µM; in test [2] (72 h) it was 1560 µM; in test [7] it was 4 µM; in test [3] (Homo sapiens, 4 h), 39 µM; in [3] (Homo sapiens, 24 h), 78 µM. The IC50 in test [3] (Homo sapiens, 48 h) was 20 µM; in test [3] (Homo sapiens, 72 h), less than 20 µM; in test [4] (setting [10]), 156 µM; in test [4] (setting [11]), 234 µM; in [4] (setting [12]), 31 µM; in test [4] (setting [13]), less than 20 µM. Also, the IC50 in test [8] and in test [9] was 391 µM throughout. Besides, the “IC50 values fold lower for all three reproductive cancer cell lines than for the HGC” value in test [2] (after 24, 48 and 72 h treatment, KGN, JAr, OVCAR-3 vs HGC) is “approximately 10 fold”. The TUNEL positive cells in test [5] is given as 31%. In addition, in [5], the TUNEL labelled cells was determined as 16%.
